Assay results published in patent US8026359B2, “Fungicidal heterocyclic amines” (E.I. du Pont de Nemours and Company, priority 2007, dated 2011).
Marks after values point to notes of the source that are not given here.

What was measured:
Assay type in all cases: in vivo
Septoria nodorum = assay: Test C: wheat glume blotch, preventive spray on wheat seedlings; conditions: 200 ppm, 100 = 100% disease control, 0 = no control relative to controls; for pest or weed control at 200 ppm: Parastagonospora nodorum, 216 h, read-out: Test C disease control rating
Description: (§1) General protocol for preparing test suspensions for Tests A-R: The test compounds were first dissolved in acetone in an amount equal to 3% of the final volume and then suspended at the desired concentration (in ppm) in acetone and purified water (50/50 mix) containing 250 ppm of the surfactant Trem® 014 (polyhydric alcohol esters). The resulting test suspensions were then used in tests A-R. In Tests A-M, compounds were sprayed as a 200 ppm test suspension (equivalent to a rate of 500 g/ha) or as a 40 ppm test suspension to the point of runoff on the test plants. In Tests N-R, compounds were sprayed as a 100 g/ha test suspension (equivalent to a rate of 100 ppm) on the test plants at an application volume of 1000 L/ha. The test suspension was sprayed to the point of run-off on wheat seedlings.

Fusarium graminearum = assay: whole plant or invertebrate; conditions: for Test E disease control rating: 200 ppm, 100 = 100% disease control, 0 = no control relative to controls; for pest or weed control at 200 ppm: Fusarium graminearum, in Triticum aestivum, 192 h, read-out: Test E disease control rating
Botrytis cinerea = assay: Test F: tomato Botrytis, preventive spray on tomato seedlings; conditions: 200 ppm, 100 = 100% disease control, 0 = no control relative to controls; for pest or weed control at 200 ppm: Botrytis cinerea, 120 h, read-out: Test F disease control rating
Description: as §1, with “tomato” for “wheat”

Septoria tritici = assay: Test D: wheat leaf blotch, preventive spray on wheat seedlings; conditions: 200 ppm, 100 = 100% disease control, 0 = no control relative to controls; for pest or weed control at 200 ppm: Zymoseptoria tritici, 504 h, read-out: Test D disease control rating
Description: as §1

Alternaria solani = assay: Test H: tomato early blight, preventive spray on seedlings
Description: as §1

[1] = system: Puccinia recondita f. sp. tritici; assay: Test B: wheat leaf rust, preventive spray on wheat seedlings; conditions: 200 ppm, 100 = 100% disease control, 0 = no control relative to controls; for pest or weed control at 200 ppm: Puccinia recondita, 192 h, read-out: Test B disease control rating
Description: as §1

[2] = system: Colletotrichum orbiculare; assay: Test I: cucumber Colletotrichum anthracnose, preventive spray on cucumber seedlings; conditions: 100 = 100% disease control, 0 = no control relative to controls; for pest or weed control at 200 ppm: Colletotrichum orbiculare, 144 h, read-out: Test I disease control rating; for Test I disease control rating: 200 ppm
Description: as §1, with “cucumber” for “wheat”

[3] = system: Erysiphe graminis f. sp. tritici; assay: Test A: wheat powdery mildew, preventive spray on wheat seedlings; conditions: 200 ppm, 100 = 100% disease control, 0 = no control relative to controls; for pest or weed control at 200 ppm: Blumeria graminis, 192 h, read-out: Test A disease control rating
Description: as §1

[4] = 200 ppm, 100 = 100% disease control, 0 = no control relative to controls

Structure (SMILES) | Test C disease control rating (Septoria nodorum) [%] | Test E disease control rating (Fusarium graminearum) [%] | Test F disease control rating (Botrytis cinerea) [%] | Test D disease control rating (Septoria tritici) [%] | Test H disease control rating (Alternaria solani; [4]) [%] | Test B disease control rating [1] [%] | Test H disease control rating (Alternaria solani; 40 ppm (marked *)) | pest or weed control at 200 ppm (Septoria nodorum) [%] | pest or weed control at 200 ppm (Fusarium graminearum) [%] | pest or weed control at 200 ppm (Botrytis cinerea) [%] | pest or weed control at 200 ppm (Septoria tritici) [%] | pest or weed control at 200 ppm [1] [%] | pest or weed control at 200 ppm [2] [%] | pest or weed control at 200 ppm [3] [%] | Test I disease control rating [2] [%] | Test A disease control rating [3] [%]
COC[C@H](C)Nc1nccc(-c2ncnc(Nc3ccc(C)c(C)c3)n2)n1 [Compound 24] | 100 | 99 | 70 | 24 | 100 | 97 |  |  |  |  |  |  |  |  |  | 
COC[C@H](C)Nc1nccc(-c2ncnc(Nc3ccc(F)cc3)n2)n1 [Compound 13] | 100 | 96 | 87 | 26 |  | 100 | 98* % |  |  |  |  |  |  |  |  | 
COC[C@H](C)Nc1nccc(-c2ncnc(Nc3cccc(I)c3)n2)n1 [Compound 12] | 100 | 96 | 37 | 0 | 98 | 79 |  |  |  |  |  |  |  |  |  | 
COC[C@H](C)Nc1nccc(-c2ncnc(Nc3ccc(Cl)c(Cl)c3)n2)n1 [Compound 14] | 100 | 92 | 55 | 0 | 95 | 79 |  |  |  |  |  |  |  |  |  | 
COC[C@H](C)Nc1nccc(-c2ncnc(Nc3ccc(F)c(F)c3)n2)n1 [Compound 29] | 100 | 99 | 91 | 90 |  | 100 | 97* % |  |  |  |  |  |  |  |  | 
Fc1cccc(Nc2cc(-c3ccnc(NC4CCCC4)n3)ccn2)c1 [Compound 62, N-cyclopentyl-4-[2-[(3-fluorophenyl)amino]-4-pyridinyl]-2-pyrimidinamine] |  |  |  |  |  |  |  | 0 | 0 | 0 | 14 | 94 | 0 | 0 |  | 
Cc1cccc(Cl)c1Nc1cc(-c2ccnc(NC3CCOCC3)n2)ccn1 [Compound 80, 4-[2-[(2-chloro-6-methylphenyl)amino]-4-pyridinyl]-N-(tetrahydro-2H-pyran-4-yl)-2-pyrimidinamine] |  |  |  |  |  |  |  | 99 | 98 | 99 | 93 | 100 | 98 | 86 |  | 
COCC(C)Nc1nccc(-c2ccnc(Nc3c(F)ccc(F)c3F)c2)n1 (centres unmarked) [Compound 70] | 99 | 84 | 97 | 17 |  | 98 |  |  |  |  |  |  |  |  | 98 | 95
Fc1cccc(Nc2cc(-c3ccnc(NC4CC4)n3)ccn2)c1 [Compound 65] | 96 | 0 | 0 | 0 |  | 80 |  |  |  |  |  |  |  |  | 83 | 46
Fc1cccc(Nc2cc(-c3ccnc(NCC4CCOC4)n3)ccn2)c1 (centres unmarked) [Compound 82, 4-[2-[(3-fluorophenyl)amino]-4-pyridinyl]-N-[(tetrahydro-3-furanyl)methyl]-2-pyrimidinamine] |  |  |  |  |  |  |  | 91 | 0 | 0 | 68 | 98 | 29 | 0 |  | 
COCC(C)Nc1nccc(-c2ccnc(Nc3c(C)cc(Cl)cc3Cl)c2)n1 (centres unmarked) [Compound 93] | 100 | 66 | 98 | 78 |  | 99 |  |  |  |  |  |  |  |  | 0 | 84
COCCNc1nccc(-c2ccnc(Nc3cccc(F)c3)c2)n1 [Compound 58] | 99 | 0 | 86 | 36 |  | 98 |  |  |  |  |  |  |  |  | 24 | 44
COCC(C)Nc1nccc(-c2ccnc(Nc3ccnc(Cl)c3)c2)n1 (centres unmarked) [Compound 54] | 64 | 0 | 85 | 35 |  | 96 |  |  |  |  |  |  |  |  | 0 | 0
COCC(C)Nc1nccc(-c2ccnc(Nc3c(C)cc(C)cc3Cl)c2)n1 (centres unmarked) [Compound 87] | 100 | 0 | 96 | 49 |  | 95 |  |  |  |  |  |  |  |  | 88 | 87
Fc1cccc(Nc2cc(-c3ccnc(NC4CCOC4)n3)ccn2)c1 (centres unmarked) [Compound 74] | 99 | 0 | 48 | 72 |  | 94 |  |  |  |  |  |  |  |  | 17 | 0
Clc1cccc(Nc2cc(-c3ccnc(N[C@H]4CCOC4)n3)ccn2)c1 [Compound 72] | 95 | 0 | 0 | 11 |  | 80 |  |  |  |  |  |  |  |  | 0 | 0
